IC50 data for 26 compounds are collected here from patent US20250154109A1, “SODIUM CHANNEL BLOCKING COMPOUNDS, DERIVATIVES THEREOF, AND METHODS OF THEIR USE” (LATIGO BIOTHERAPEUTICS, INC, priority 2022, published 2025).

Each structure is given as a SMILES string. Counter-ions that a name gives are not always drawn. Like-named read-outs stand apart in the source and are kept apart here.

The target of the test is human Nav1.8 (Homo sapiens, UniProt Q9Y5Y9). Description: SyncroPatch384PE assay (automated patch clamp). The test is classed as cell-based. The note with it: human Nav1.8/b3 CHO cells.
Where [1] appears, read: inactivated state block (P2 measurement), read-out: P2 IC50.
The mark [2] stands for this setting: resting state block (P1 measurement), read-out: P1 IC50.

human Nav1.8, sequence (Q9Y5Y9 whole entry): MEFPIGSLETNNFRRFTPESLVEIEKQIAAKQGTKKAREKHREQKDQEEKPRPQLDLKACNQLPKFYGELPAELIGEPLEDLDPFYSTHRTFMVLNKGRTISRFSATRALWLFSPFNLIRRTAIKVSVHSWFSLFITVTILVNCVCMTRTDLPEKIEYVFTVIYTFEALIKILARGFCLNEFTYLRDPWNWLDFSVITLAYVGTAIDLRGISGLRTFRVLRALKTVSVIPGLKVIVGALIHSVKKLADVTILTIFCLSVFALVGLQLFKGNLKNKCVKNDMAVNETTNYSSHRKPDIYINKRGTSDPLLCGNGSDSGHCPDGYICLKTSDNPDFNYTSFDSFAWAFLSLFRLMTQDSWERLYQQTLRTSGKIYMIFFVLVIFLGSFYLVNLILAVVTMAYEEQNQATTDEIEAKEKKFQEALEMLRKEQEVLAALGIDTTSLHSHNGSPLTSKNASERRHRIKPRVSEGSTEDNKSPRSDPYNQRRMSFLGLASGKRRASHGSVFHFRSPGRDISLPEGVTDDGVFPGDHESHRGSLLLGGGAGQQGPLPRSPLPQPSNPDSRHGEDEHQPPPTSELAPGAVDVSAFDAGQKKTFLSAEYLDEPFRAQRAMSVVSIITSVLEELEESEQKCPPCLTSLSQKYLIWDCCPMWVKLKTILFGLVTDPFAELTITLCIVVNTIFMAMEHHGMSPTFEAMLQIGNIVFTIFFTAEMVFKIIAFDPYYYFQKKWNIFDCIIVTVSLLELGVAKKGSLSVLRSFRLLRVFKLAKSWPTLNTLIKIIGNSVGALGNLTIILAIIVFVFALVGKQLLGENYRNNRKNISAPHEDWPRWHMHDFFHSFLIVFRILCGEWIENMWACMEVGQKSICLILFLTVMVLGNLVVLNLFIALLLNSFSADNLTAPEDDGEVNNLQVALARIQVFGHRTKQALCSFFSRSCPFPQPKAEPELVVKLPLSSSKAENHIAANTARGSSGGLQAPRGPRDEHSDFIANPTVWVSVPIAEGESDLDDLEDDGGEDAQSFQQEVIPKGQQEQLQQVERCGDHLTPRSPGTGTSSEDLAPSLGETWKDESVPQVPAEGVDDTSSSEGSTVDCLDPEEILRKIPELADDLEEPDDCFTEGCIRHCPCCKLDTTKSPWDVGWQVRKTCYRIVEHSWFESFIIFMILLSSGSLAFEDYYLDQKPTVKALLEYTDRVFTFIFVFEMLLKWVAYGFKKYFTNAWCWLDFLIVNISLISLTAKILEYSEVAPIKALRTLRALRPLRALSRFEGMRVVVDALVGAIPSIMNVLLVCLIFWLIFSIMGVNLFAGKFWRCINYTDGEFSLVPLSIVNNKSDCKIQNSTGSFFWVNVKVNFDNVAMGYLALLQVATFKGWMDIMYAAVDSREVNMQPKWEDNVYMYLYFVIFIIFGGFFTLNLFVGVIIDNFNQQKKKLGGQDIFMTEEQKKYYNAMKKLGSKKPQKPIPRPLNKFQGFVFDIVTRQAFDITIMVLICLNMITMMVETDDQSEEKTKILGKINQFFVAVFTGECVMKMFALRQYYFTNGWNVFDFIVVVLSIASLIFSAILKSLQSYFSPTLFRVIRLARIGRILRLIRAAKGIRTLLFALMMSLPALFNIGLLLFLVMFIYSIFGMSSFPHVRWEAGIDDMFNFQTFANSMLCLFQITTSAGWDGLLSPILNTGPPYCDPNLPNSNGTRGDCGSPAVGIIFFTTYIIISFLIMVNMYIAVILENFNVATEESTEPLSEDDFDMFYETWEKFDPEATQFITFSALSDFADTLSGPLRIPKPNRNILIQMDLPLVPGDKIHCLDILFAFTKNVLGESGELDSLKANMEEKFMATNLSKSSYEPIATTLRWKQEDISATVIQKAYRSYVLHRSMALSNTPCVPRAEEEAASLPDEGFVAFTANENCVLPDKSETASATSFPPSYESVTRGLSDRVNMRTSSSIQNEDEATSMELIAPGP

`Cc1c(C#N)c(C(F)(F)F)nc(N2CCCC(F)(F)CC2)c1C(=O)Nc1cccc([S@@](C)(=O)=NC(=O)C2(N)CCC2)c1` [Example 73, (R)-N-(3-(N-(1-aminocyclobutane-1-carbonyl)-S-methylsulfonimidoyl)phenyl)-5-cyano-2-(4,4-difluoroazepan-1-yl)-4-methyl-6-(trifluoromethyl)nicotinamide]: the IC50 runs as follows: under setting [1], 0.005 to 0.05 µM; under setting [2], 0.05 to 0.1 µM.

Consider `Cc1c(C(=O)Nc2cccc([S@](C)(=N)=O)c2)c(N2CCCC(F)(F)CC2)nc(C(F)(F)F)c1-c1cnn(C)c1` [Example 133, (R)-2-(4,4-difluoroazepan-1-yl)-4-methyl-5-(1-methyl-1H-pyrazol-4-yl)-N-(3-(S-methylsulfonimidoyl)phenyl)-6-(trifluoromethyl)nicotinamide], for which the IC50 under setting [1] was no more than 0.005 µM and the IC50 under setting [2] is no more than 0.005 µM.

As for `Cc1c(C#CCN(C)C)cnc(N2CCCC(F)(F)CC2)c1C(=O)Nc1cccc([S@](C)(=N)=O)c1` [Example 124, (R)-2-(4,4-difluoroazepan-1-yl)-5-(3-(dimethylamino)prop-1-yn-1-yl)-4-methyl-N-(3-(S-methylsulfonimidoyl)phenyl)nicotinamide], the IC50 under setting [1] is 0.1 to 0.2 µM and the IC50 under setting [2] is 0.1 to 0.2 µM.

Regarding `Cc1c(-c2cnco2)cnc(N2CCCC(F)(F)CC2)c1C(=O)Nc1cccc([S@](C)(=N)=O)c1` [Example 147, (R)-2-(4,4-difluoroazepan-1-yl)-4-methyl-N-(3-(S-methylsulfonimidoyl)phenyl)-5-(oxazol-5-yl)nicotinamide], the IC50 lay in the range of 0.005 to 0.05 µM under setting [1] and 0.005 to 0.05 µM under setting [2].

For `Cc1c(N2CC3(COC3)C2)cnc(N2CCCC(F)(F)CC2)c1C(=O)Nc1cccc([S@@](C)(=N)=O)c1` [Example 90, (S)-2-(4,4-difluoroazepan-1-yl)-4-methyl-N-(3-(S-methylsulfonimidoyl)phenyl)-5-(2-oxa-6-azaspiro[3.3]heptan-6-yl)nicotinamide], the IC50 runs as follows: under setting [1], 0.1 to 0.2 µM; under setting [2], 0.1 to 0.2 µM.

Consider `CNCC(=O)N=[S@](C)(=O)c1cccc(NC(=O)c2c(N3CCCC(F)(F)CC3)ncc(-c3ccc(C#N)cc3)c2C)c1` [Example 50, (R)-5-(4-cyanophenyl)-2-(4,4-difluoroazepan-1-yl)-4-methyl-N-(3-(S-methyl-N-(methylglycyl)sulfonimidoyl)phenyl)nicotinamide], for which the IC50 is no more than 0.005 µM under setting [1] and no more than 0.005 µM under setting [2].

Regarding `Cc1nc(N2CCC3(CC2)CC3)c(C(=O)Nc2cccc([S@@](C)(=N)=O)c2)cc1Cl` [Example 27, (S)-5-Chloro-6-methyl-N-(3-(S-methylsulfonimidoyl)phenyl)-2-(6-azaspiro[2.5]octan-6-yl)nicotinamide], the half-maximal inhibitory concentration (IC50) by setting is: under setting [1], no more than 0.005 µM; under setting [2], no more than 0.005 µM.

For `Cc1c(-c2cccc(C#N)c2)cnc(N2CCCC(F)(F)CC2)c1C(=O)Nc1cccc(S(C)(=N)=O)c1` (stereo not shown) [Example 91, 5-(3-cyanophenyl)-2-(4,4-difluoroazepan-1-yl)-4-methyl-N-(3-(S-methylsulfonimidoyl)phenyl)nicotinamide], the IC50 by setting is: under setting [1], 0.005 to 0.05 µM; under setting [2], 0.005 to 0.05 µM.

In the case of `Cc1nc(N2CCCC(F)(F)CC2)c(C(=O)Nc2cccc([S@](C)(=N)=O)c2)cc1Cl` [Example 16, (R)-5-chloro-2-(4,4-difluoroazepan-1-yl)-6-methyl-N-(3-(S-methylsulfonimidoyl)phenyl)nicotinamide], the IC50 by setting is: under setting [1], no more than 0.005 µM; under setting [2], no more than 0.005 µM.

Regarding `Cc1c(-c2ccc(C#N)cc2)nnc(N2CCCC(F)(F)CC2)c1C(=O)Nc1cccc([S@](C)(=N)=O)c1` [Example 154, (R)-6-(4-cyanophenyl)-3-(4,4-difluoroazepan-1-yl)-5-methyl-N-(3-(S-methylsulfonimidoyl)phenyl)pyridazine-4-carboxamide], the IC50 was 0.05 to 0.1 µM under setting [1] and 0.05 to 0.1 µM under setting [2].

Turning to `Cc1c(C2CC2)nnc(N2CCCC(F)(F)CC2)c1C(=O)Nc1cccc(S(C)(=N)=O)c1` (stereo not shown) [Example 22, 6-cyclopropyl-3-(4,4-difluoroazepan-1-yl)-5-methyl-N-(3-(S-methylsulfonimidoyl)phenyl)pyridazine-4-carboxamide], the IC50 is greater than 0.2 µM under setting [1] and greater than 0.2 µM under setting [2].

In the case of `Cc1c(-c2cnn(C)c2)cnc(N2CCCC(F)(F)CC2)c1C(=O)Nc1cccc([S@@](C)(=O)=NC(=O)[C@@H](C)N)c1` [Example 75, N-(3-((R)-N-(D-alanyl)-S-methylsulfonimidoyl)phenyl)-2-(4,4-difluoroazepan-1-yl)-4-methyl-5-(1-methyl-1H-pyrazol-4-yl)nicotinamide], the half-maximal inhibitory concentration (IC50) is 0.005 to 0.05 µM under setting [1] and 0.005 to 0.05 µM under setting [2].

For `Cc1c(C(=O)Nc2cccc([S@@](C)(=O)=NC(=O)CO)c2)c(N2CCCC(F)(F)CC2)nc(C(F)(F)F)c1-c1cnn(C)c1` [Example 191, (R)-2-(4,4-difluoroazepan-1-yl)-N-(3-(N-(2-hydroxyacetyl)-S-methylsulfonimidoyl)phenyl)-4-methyl-5-(1-methyl-1H-pyrazol-4-yl)-6-(trifluoromethyl)nicotinamide], the IC50 was no more than 0.005 µM under setting [1] and no more than 0.005 µM under setting [2].

In the case of `CNCC(=O)N=[S@](C)(=O)c1cccc(NC(=O)c2c(N3CCCC(F)(F)CC3)ncc(-c3cnn(C4CC4)c3)c2C)c1` [Example 70, (R)-5-(1-cyclopropyl-1H-pyrazol-4-yl)-2-(4,4-difluoroazepan-1-yl)-4-methyl-N-(3-(S-methyl-N-(methylglycyl)sulfonimidoyl)phenyl)nicotinamide], the IC50 is no more than 0.005 µM under setting [1] and no more than 0.005 µM under setting [2].

Turning to `CS(=N)(=O)c1cccc(NC(=O)c2cc(C(F)(F)F)nnc2N2CCCCCC2)c1` (stereo not shown) [Example 1, 3-(Azepan-1-yl)-N-(3-(S-methylsulfonimidoyl)phenyl)-6-(trifluoromethyl)pyridazine-4-carboxamide], the IC50 was greater than 0.2 µM under setting [1] and greater than 0.2 µM under setting [2].

As for `CS(=O)(=O)c1cccc(NC(=O)c2nnc(C(F)(F)F)cc2N2CCCC(F)(F)CC2)c1` [Example 39, 4-(4,4-Difluoroazepan-1-yl)-N-(3-(methylsulfonyl)phenyl)-6-(trifluoromethyl)pyridazine-3-carboxamide], the IC50 is greater than 0.2 µM under setting [1] and greater than 0.2 µM under setting [2].

Take `Cc1c(C(F)(F)F)cnc(N2CCCC(F)(F)CC2)c1C(=O)Nc1cccc([S@@](C)(=O)=NC(=O)C(C)(C)N)c1` [Example 187, (R)-N-(3-(N-(2-amino-2-methylpropanoyl)-S-methylsulfonimidoyl)phenyl)-2-(4,4-difluoroazepan-1-yl)-4-methyl-5-(trifluoromethyl)nicotinamide]: the IC50 runs as follows: under setting [1], no more than 0.005 µM; under setting [2], no more than 0.005 µM.

With `Cc1c(-c2ccc(Cl)cc2)cnc(N2CCCC(F)(F)CC2)c1C(=O)Nc1cccc([S@](C)(=N)=O)c1` [Example 67, (R)-5-(4-chlorophenyl)-2-(4,4-difluoroazepan-1-yl)-4-methyl-N-(3-(S-methylsulfonimidoyl)phenyl)nicotinamide], the IC50 is, setting by setting: under setting [1], no more than 0.005 µM; under setting [2], no more than 0.005 µM.

Consider `Cc1nc(N2CCCC(F)(F)CC2)c(C(=O)Nc2cccc(S(C)(=N)=O)c2)cc1Cl` (stereo not shown) [Example 15, 5-chloro-2-(4,4-difluoroazepan-1-yl)-6-methyl-N-(3-(S-methylsulfonimidoyl)phenyl)nicotinamide], for which the IC50 under setting [1] was no more than 0.005 µM and the IC50 under setting [2] was no more than 0.005 µM.

With `Cc1c(-c2ccccc2)nnc(N2CCCC(F)(F)CC2)c1C(=O)Nc1cccc(S(C)(=N)=O)c1` (stereo not shown) [Example 20, 3-(4,4-difluoroazepan-1-yl)-5-methyl-N-(3-(S-methylsulfonimidoyl)phenyl)-6-phenylpyridazine-4-carboxamide], the IC50 runs as follows: under setting [1], 0.05 to 0.1 µM; under setting [2], 0.05 to 0.1 µM.

For `Cc1c(C(F)(F)F)cnc(N2CCCC(F)(F)CC2)c1C(=O)Nc1cccc([S@@](C)(=O)=NC(=O)CN)c1` [Example 181, (R)-2-(4,4-difluoroazepan-1-yl)-N-(3-(N-glycyl-S-methylsulfonimidoyl)phenyl)-4-methyl-5-(trifluoromethyl)nicotinamide], the IC50 is no more than 0.005 µM under setting [1] and no more than 0.005 µM under setting [2].

In the case of `Cc1c(-c2cnn(C)c2)nnc(N2CCCC(F)(F)CC2)c1C(=O)Nc1cccc([S@](C)(=N)=O)c1` [Example 71, (R)-3-(4,4-difluoroazepan-1-yl)-5-methyl-6-(1-methyl-1H-pyrazol-4-yl)-N-(3-(S-methylsulfonimidoyl)phenyl)pyridazine-4-carboxamide], the IC50 is, setting by setting: under setting [1], greater than 0.2 µM; under setting [2], greater than 0.2 µM.

Regarding `Cc1c(C(F)(F)F)nnc(N2CCCCCC2)c1C(=O)N=S(C)(=O)c1cccc(N)c1` (stereo not shown) [Example 8, N-((3-aminophenyl)(methyl)(oxo)-λ^6-sulfaneylidene)-3-(azepan-1-yl)-5-methyl-6-(trifluoromethyl)pyridazine-4-carboxamide], the IC50 runs as follows: under setting [1], greater than 0.2 µM; under setting [2], greater than 0.2 µM.

With `Cc1c(C#N)c(C(F)(F)F)nc(N2CCCC(F)(F)CC2)c1C(=O)Nc1cccc([S@@](C)(=O)=NC(=O)C(C)(C)N)c1` [Example 227, (R)-N-(3-(N-(2-amino-2-methylpropanoyl)-S-methylsulfonimidoyl)phenyl)-5-cyano-2-(4,4-difluoroazepan-1-yl)-4-methyl-6-(trifluoromethyl)nicotinamide formate], the IC50 by setting is: under setting [1], no more than 0.005 µM; under setting [2], no more than 0.005 µM.

As to `Cc1c(-c2ccc(C#N)cc2)cnc(N2CCCC(F)(F)CC2)c1C(=O)NC12CC(C(N)=O)(C1)C2` [Example 134, N-(3-carbamoylbicyclo[1.1.1]pentan-1-yl)-5-(4-cyanophenyl)-2-(4,4-difluoroazepan-1-yl)-4-methylnicotinamide], the IC50 is greater than 0.2 µM under setting [1] and greater than 0.2 µM under setting [2].

In the case of `Cc1c(-c2ccccc2)nnc(N2CCCC(F)(F)CC2)c1C(=O)Nc1cccc([S@](C)(=N)=O)c1` [Example 118, (R)-3-(4,4-difluoroazepan-1-yl)-5-methyl-N-(3-(S-methylsulfonimidoyl)phenyl)-6-phenylpyridazine-4-carboxamide], the IC50 runs as follows: under setting [1], 0.05 to 0.1 µM; under setting [2], 0.05 to 0.1 µM.
